These results are taken from US4788193A, “1-aryloxy-3-(substituted alkylamino)-2-propanols, pharmaceutical compositions and use” (Merck & Co., Inc., priority 1987, dated 1988).

What all share (type): cell-based
The target in assay [1] is T1, β1-receptor (Cavia porcellus, UniProt H0W3H1).
T1 construct: isolated guinea pig atrial preparations; from tissue; host or cells: isolated guinea pig atria
Description: inhibition of the positive chronotropic actions of isoproterenol in isolated guinea pig atrial preparations (β1). The following applies: isolated guinea pig atria, isoproterenol chronotropic action; read-out: pA2 values β1 (atria) (converted). As for the experimental part:
(§1) The in vitro β-adrenergic blocking properties of the novel compounds of this invention were evaluated in accordance with standard procedures. The interaction with the β1 -receptor was determined via inhibition of the positive chronotropic actions of isoproterenol in isolated guinea pig atrial preparations. β2 potency was determined by using isolated guinea pig tracheal chains contracted with PGF2@ and by measuring inhibition of isoproterenol-induced relaxation.

The subject of assay [2] is β1-receptor. Described as above. The settings on record: β1 (atria) versus β2 (trachea), from pA2 values. On the procedure: as §1
Assay [3] addresses T2, β2 (trachea) (Cavia porcellus, UniProt Q8K4Z4).
T2 construct: isolated guinea pig tracheal chains; from tissue; host or cells: isolated guinea pig tracheal chains
Description: inhibition of isoproterenol-induced relaxation in isolated guinea pig tracheal chains contracted with PGF2α (β2). The following applies: read-out: pA2 values β2 (trachea) (converted). On the procedure: as §1

The structures appear in SMILES notation.

T1 sequence (H0W3H1 1-470): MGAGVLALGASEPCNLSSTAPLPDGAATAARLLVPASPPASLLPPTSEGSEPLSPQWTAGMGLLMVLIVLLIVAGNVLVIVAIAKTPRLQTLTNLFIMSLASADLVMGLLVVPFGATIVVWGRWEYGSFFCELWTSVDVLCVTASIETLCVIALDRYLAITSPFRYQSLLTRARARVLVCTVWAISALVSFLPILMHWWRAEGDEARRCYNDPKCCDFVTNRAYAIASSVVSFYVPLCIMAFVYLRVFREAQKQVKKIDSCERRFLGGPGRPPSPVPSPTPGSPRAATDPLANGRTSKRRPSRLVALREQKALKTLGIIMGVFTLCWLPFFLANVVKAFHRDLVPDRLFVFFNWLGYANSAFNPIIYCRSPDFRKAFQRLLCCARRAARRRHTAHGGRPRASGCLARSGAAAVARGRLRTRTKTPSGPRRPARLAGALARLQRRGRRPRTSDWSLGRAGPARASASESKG
T2 sequence (Q8K4Z4 whole entry): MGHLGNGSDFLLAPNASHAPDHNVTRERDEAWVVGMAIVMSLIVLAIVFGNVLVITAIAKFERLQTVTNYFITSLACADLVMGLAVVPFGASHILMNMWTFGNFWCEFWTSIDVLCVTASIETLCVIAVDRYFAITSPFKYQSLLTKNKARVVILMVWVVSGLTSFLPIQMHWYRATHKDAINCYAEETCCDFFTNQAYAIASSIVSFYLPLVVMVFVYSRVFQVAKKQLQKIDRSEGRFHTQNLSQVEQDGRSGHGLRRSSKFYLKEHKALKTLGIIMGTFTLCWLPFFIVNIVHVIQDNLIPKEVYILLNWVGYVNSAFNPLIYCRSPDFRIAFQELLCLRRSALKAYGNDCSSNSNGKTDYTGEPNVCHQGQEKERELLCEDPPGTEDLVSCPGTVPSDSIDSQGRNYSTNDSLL

Consider `N#Cc1ccccc1OCC(O)CNCCc1ccncc1` (centres unmarked), for which the results for the Kb in assay [1] and in assay [3] were 74.1 nM and 302 nM, respectively. For the same molecule, the Cardioselectivity ratio in assay [2] came to 4.1.
For the molecule `CN(C)CCNCC(O)COc1ccccc1C#N` (centres unmarked) [N(CH3)2, 1-(2-cyanophenoxy)-3-[2-(dimethylamino)ethyl]-amino-2-propanol], the Kb was 43.7 nM in assay [1] and 1120 nM in assay [3].
Regarding `N#Cc1ccccc1OCC(O)CNCCN1CCOCC1` (centres unmarked), the Kb is 15.5 nM in assay [1] and 89.1 nM in assay [3]. Further, in assay [2], the Cardioselectivity ratio was determined as 5.8.
In the case of `N#Cc1ccccc1OCC(O)CNCCN1CCNCC1` (centres unmarked), the results for the Kb in assay [1] and in assay [3] were 25.7 nM and 64.6 nM, respectively. The Cardioselectivity ratio in assay [2] is given as 2.5.
Consider `N#Cc1ccccc1OCC(O)CNCCc1cccnc1` (centres unmarked), for which the Kb is 23.4 nM in assay [1] and 138 nM in assay [3]. For the same molecule, the Cardioselectivity ratio in assay [2] came out at 5.9.
For the molecule `N#Cc1ccccc1OCC(O)CNCCc1ccccn1` (centres unmarked), the Kb in assay [1] is 34.7 nM; in assay [3] it was 34700 nM. Moreover, in assay [2], the Cardioselectivity ratio was determined as 1000.
